Where “and” joins values, the source holds several entries; their conditions need not be identical. Equal entries are not always repeated. Toxic doses and inconclusive results are not listed.
Test system: P388 leukemia ip, CD2F1 mice, survival T/C
Assay: NCI In Vivo Anticancer Drug Screen. Data for tumor model P388 Leukemia (intraperitoneal) in CD2F1 (CDF1) mice
Conditions: endpoint: median survival time, higher = longer survival
Outline: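 Mice carrying the transplanted tumor received test compound or vehicle. Survival was recorded in each group, and the value is the treated-group measurement divided by that of the vehicle-treated control group.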

[1] = dose: 60.0 mg/kg/injection, schedule: Q01DX005 (ip), vehicle: saline with Tween-80
[2] = dose: 120.0 mg/kg/injection, schedule: Q01DX005 (ip), vehicle: saline with Tween-80
[3] = dose: 50.0 mg/kg/injection, schedule: Q01DX009 (ip), vehicle: Klucel (hydroxypropylcellulose) (HPC)
[4] = dose: 100.0 mg/kg/injection, schedule: Q01DX009 (ip), vehicle: Klucel (hydroxypropylcellulose) (HPC)
[5] = dose: 200.0 mg/kg/injection, schedule: Q01DX009 (ip), vehicle: Klucel (hydroxypropylcellulose) (HPC)
[6] = dose: 50.0 mg/kg/injection, schedule: Q01DX005 (ip), vehicle: Klucel (hydroxypropylcellulose) (HPC)
[7] = dose: 100.0 mg/kg/injection, schedule: Q01DX005 (ip), vehicle: Klucel (hydroxypropylcellulose) (HPC)
[8] = dose: 200.0 mg/kg/injection, schedule: Q01DX005 (ip), vehicle: Klucel (hydroxypropylcellulose) (HPC)
[9] = dose: 50.0 mg/kg/injection, schedule: Q01DX009 (ip), vehicle: saline
[10] = dose: 100.0 mg/kg/injection, schedule: Q01DX009 (ip), vehicle: saline

`COc1cc(/C=C/[N+](=O)[O-])cc(Br)c1O` was tested, and the T/C (dose: 30.0 mg/kg/injection, schedule: Q01DX005 (ip), vehicle: saline with Tween-80) was 119 % of control, the T/C [1] was 110 % of control and 113 % of control and the T/C [2] was 102 % of control and 122 % of control.
For `N/C(=N\C(=O)OCc1ccccc1)NC(=O)OCc1ccccc1`, the T/C (dose: 25.0 mg/kg/injection, schedule: Q01DX009 (ip), vehicle: Klucel (hydroxypropylcellulose) (HPC)) was 99 % of control and 109 % of control, the T/C [3] was 104 % of control and 105 % of control and the T/C [4] was 103 % of control and 104 % of control. The T/C [5] was 99 % of control and 100 % of control and the T/C (dose: 400.0 mg/kg/injection, schedule: Q01DX009 (ip), vehicle: Klucel (hydroxypropylcellulose) (HPC)) was 99 % of control and 93 % of control.
`CCOC(=O)C(NC(C)=O)(C(=O)OCC)c1ccc(Cl)cn1` was tested, and the T/C (dose: 100.0 mg/kg/injection, schedule: Q04DX003 (ip), vehicle: saline) was 103 % of control, the T/C (dose: 200.0 mg/kg/injection, schedule: Q04DX003 (ip), vehicle: saline) was 100 % of control and the T/C (dose: 400.0 mg/kg/injection, schedule: Q04DX003 (ip), vehicle: saline) was 95 % of control.
In the case of `CC(C)Nc1nc(N)nc(N)n1`, the T/C (dose: 50.0 mg/kg/injection, schedule: Q01DX009 (ip), vehicle: saline with Tween-80) is reported as 100 % of control, the T/C (dose: 100.0 mg/kg/injection, schedule: Q01DX009 (ip), vehicle: saline with Tween-80) is reported as 91 % of control and the T/C (dose: 200.0 mg/kg/injection, schedule: Q01DX009 (ip), vehicle: saline with Tween-80) is reported as 96 % of control.
`COC1=CC(=O)c2cc3ccc(OC)c(N)c3nc2C1=O` was tested, and the T/C (dose: 100.0 mg/kg/injection, schedule: Q01DX001 (ip), vehicle: Klucel (hydroxypropylcellulose) (HPC)) was 100 % of control and the T/C (dose: 200.0 mg/kg/injection, schedule: Q01DX001 (ip), vehicle: Klucel (hydroxypropylcellulose) (HPC)) was 102 % of control.
For `O=C(CCSCCC(=O)N/N=C/C(O)C(O)C(O)CO)N/N=C/C(O)C(O)C(O)CO` (configuration not stated), the T/C [6] was 103 % of control and 97 % of control, the T/C [7] was 99 % of control and 94 % of control and the T/C [8] was 99 % of control and 95 % of control.
`O=C1COC(C(=O)c2ccccc2)C(=O)N1` (configuration not stated) was tested, and the T/C [1] was 98 % of control, the T/C [2] was 95 % of control and the T/C (dose: 240.0 mg/kg/injection, schedule: Q01DX005 (ip), vehicle: saline with Tween-80) was 95 % of control.
`c1ccc(-c2c(-c3ccccc3)[c+]2-c2ccccc2)cc1` was tested, and the T/C (dose: 100.0 mg/kg/injection, schedule: Q01DX001 (ip), vehicle: gum acacia) was 99 % of control and the T/C (dose: 200.0 mg/kg/injection, schedule: Q01DX001 (ip), vehicle: gum acacia) was 99 % of control.
In the case of `COc1ccc2c3c1OC1C(OC)(OC)C=C[C@@]4(Br)[C@@H](C2)N(C)CC[C@]314` (some centres not stated), the T/C (dose: 100.0 mg/kg/injection, schedule: Q01DX001 (ip), vehicle: saline with Tween-80) is reported as 109 % of control, the T/C (dose: 200.0 mg/kg/injection, schedule: Q01DX001 (ip), vehicle: saline with Tween-80) is reported as 106 % of control and the T/C (dose: 400.0 mg/kg/injection, schedule: Q01DX001 (ip), vehicle: saline with Tween-80) is reported as 123 % of control.
In the case of `CC(C)c1ccc(C(CC(=O)c2ccccc2)C(C(=O)O)c2ccc([N+](=O)[O-])cc2)cc1` (configuration not stated), the T/C [3] is reported as 105 % of control, the T/C [4] is reported as 103 % of control and the T/C [5] is reported as 104 % of control.
With `CCCCC(CC)COCCCNCC(=O)O` (configuration not stated) the T/C (dose: 60.0 mg/kg/injection, schedule: Q01DX005 (ip), vehicle: saline) was 102 % of control and the T/C (dose: 120.0 mg/kg/injection, schedule: Q01DX005 (ip), vehicle: saline) was 107 % of control.
With `CN(C)c1n[nH]c(N)n1` the T/C (dose: 12.5 mg/kg/injection, schedule: Q01DX009 (ip), vehicle: saline) was 101 % of control, the T/C (dose: 25.0 mg/kg/injection, schedule: Q01DX009 (ip), vehicle: saline) was 103 % of control and the T/C [9] was 108 % of control and 95 % of control and 97 % of control. The T/C [10] was 103 % of control and 104 % of control and 108 % of control, the T/C (dose: 200.0 mg/kg/injection, schedule: Q01DX009 (ip), vehicle: saline) was 105 % of control and 97 % of control and the T/C (dose: 400.0 mg/kg/injection, schedule: Q01DX009 (ip), vehicle: saline) was 105 % of control and 111 % of control and 113 % of control.
With `CNC(=O)CC(C(=O)O)N(C)C` (configuration not stated) the T/C (dose: 50.0 mg/kg/injection, schedule: Q01DX009 (ip), vehicle: water) was 98 % of control, the T/C (dose: 100.0 mg/kg/injection, schedule: Q01DX009 (ip), vehicle: water) was 106 % of control and the T/C (dose: 200.0 mg/kg/injection, schedule: Q01DX009 (ip), vehicle: water) was 107 % of control.
In the case of `N=c1ccc([N+](=O)[O-])cn1O`, the T/C [9] is reported as 98 % of control and the T/C [10] is reported as 96 % of control.
For `CCNSc1ccccc1`, the T/C [3] was 106 % of control.
With `Cc1n[nH]c(=O)c(C#N)c1C` the T/C [6] was 95 % of control, the T/C [7] was 100 % of control and the T/C [8] was 95 % of control.

— PubChem BioAssay AID330 (DTP/NCI, 2004)
